Legend:
HCCs in TGFα/c-myc mice [1] = assay: Gd-DTPA-enhanced MRI with and without peptide in TGFα/c-myc mice with HCC; type: in vivo; settings: for contrast of HCC tumors in the liver in Gd-DTPA-enhanced MRI: T1-weighted 3T MRI
Source text: (§1) Male TGFα/c-myc bitransgenic mice were created by crossing homozygous metallothionein/TGFα and albumin/c-myc single-transgenic mice in a CD13B6CBA background as described (Murakami et al., 1993; Haupenthal et al., 2012). After weaning, the animals were given ZnCl2 by way of the drinking water to induce tumors via the expression of TGFα. Starting at an age of 20 weeks, the TGFα/c-myc animals underwent a Primovist-enhanced MRI scan in a 3T MRI Scanner (Siemens 113 Magnetom Trio, Siemens Medical Solutions) as described (Haupenthal et al., 2012; Watcharin et al., 2015; Korkusuz et al., 2013).
So as to determine the effect of iRGD on the Gd-DTPA-enhanced MRI in the HCC, TGFα/c mice with HCC according to a prior Gd-EOB-DTPA (Primovist)-enhanced MRI one week earlier, or nude mice with HepG2 or Huh7 tumors, were included in the experiments. The mice were anesthetized by way of intraperitoneal injection of ketamine (70 mg/kg body weight) and xylazine (10 mg/kg body weight), followed by a basal T1-weighted MRI. Directly thereafter, a Gd-DTPA-enhanced MRI was conducted (Haupenthal et al., 2012). Twelve to 24 hours later, either iRGD or the RGD control peptide was injected ([…] each via the tail vein), followed by a basal and a Gd-DTPA-enhanced MRI (Watcharin et al., 2015). For the quantitative analysis of the MRI data, the signal intensities in user defined “regions of interest” (ROI) were used (Korkusuz et al., 2013). ROIs were placed in the liver and in the tumor tissue. The changes in the signal intensities were ascertained by subtraction of the pre-contrast value from those after the administration of Gd-DTPA. The changes in the signal intensities of the tumors and the livers due to iRGD or the RGD control peptide were indicated as multiples of the values of the Gd-DTPA MRI with prior injection of PBS.
It was examined whether the tumor-permeabilizing effect of iRGD can already be detected by a Gd-DTPA-enhancing MRI, a widely used clinical procedure, in TGFα/c-myc mice with endogenous HCC. For this purpose, TGFα/c-myc mice with HCCs discovered one week prior according to Gd-EOB-DTPA-enhanced MRI were used. […] 12 to 24 hours later, the mice were administered iRGD or the RGD control peptide, followed by another Gd-DTPA-enhanced MRI.
TGFα/c-myc mice in which HCCs had been detected one week prior by way of Gd-EOB-DTPA-enhanced MRI were anesthetized, followed by a basal T1-weighted MRI, and a Gd-DTPA-enhanced MRI directly thereafter. 12 to 24 hours later, either iRGD or RGD control peptide (con. peptide) was injected (100 μL each via the tail vein, 4 mmol/kg) into the same animals, followed by a basal MRI and a Gd-DTPA-enhanced MRI. A. Gd-DTPA-enhanced MRI of TGFα/c-myc mice with HCC (left), followed by an injection of iRGD and another Gd-DTPA-enhanced MRI 12 hours thereafter. Arrows mark the tumor.
B. quantitative analysis of the MRI data. Values are mean values±SD; n=12.

HCCs in TGFα/c-myc mice [2] = assay: Doxorubicin tissue concentration after i.v. peptide in TGFα/c-myc mice with HCC; type: in vivo; settings: peptide 4 mmol/kg i.v.; for doxorubicin level in the HCCs: doxorubicin 20 mg/kg iv 10 minutes later, tissues 30 minutes later; for levels of doxorubicin in the organs: doxorubicin 20 mg/kg iv, FIG. 2A
Source text: as §1
Furthermore, the effect of iRGD on the tissue concentrations of intravenously applied doxorubicin, a tumor therapeutic agent that can be detected due to the inherent fluorescence in tissue sections and tissue extracts, in the TGFα/c-myc and in the HepG2 xenotransplant HCC mouse model was analyzed. […] The control peptide had no effects on the doxorubicin level in any of the tissues.
TGFα/c-myc mice with radiologically verified HCCs (A) or nude mice with subcutaneous HepG2 xenotransplants (B) were intravenously injected with 4 mmol/kg iRGD or control peptide (each in PBS), or treated with PBS alone, followed by a doxorubicin (20 mg/kg iv) injection 10 minutes later. The tissues were collected another 30 minutes later and stored, and the doxorubicin concentration was determined. The values are mean values±SD; n=5 to 6. Asterisks indicate a significant difference (**P<0.01; ***P<0.001).

HCCs in TGFα/c-myc mice [3] = assay: Evans blue accumulation after i.v. peptide in TGFα/c-myc mice with endogenous HCC; type: in vivo; settings: peptide 4 mmol/kg i.v., then Evans blue; for concentration of Evans blue in normal tissue (liver, kidney, spleen and lung): photometry; for Evans blue quantity in the tumors compared to HCCs of mice injected with PBS or control peptide: tissues 30 minutes later, photometric quantification
Source text: as §1
So as to examine whether intravenously applied iRGD increases the permeability of the HCC, the effect of intravenously applied iRGD on the levels of co-injected Evans blue, an albumin-binding dye, in TGFα/c-myc mice with endogeneous HCCs according to a Gd-EOB-DTPA-enhanced MRI were analyzed. For this purpose, the mice with HCC were intravenously injected with iRGD, an RGD control peptide without a CendR motif, or PBS, followed by the injection of Evans blue […]. Another 30 minutes later, the animals were terminally perfused.
(§2) TGFα/c-myc mice with MRI-verified HCCs (A) or mice with subcutaneous HepG2 (B) or Huh7 xenotransplants (C) were intravenously injected with 4 mmol/kg iRGD or control peptide (each in PBS), or PBS was injected alone, followed by an injection of EB 5 minutes later. The tissues were harvested after another 30 minutes. The EB accumulation in the tissues was determined by way of photometry. The data involves mean values±SD; n=4 to 5. Asterisks indicate a significant difference (* P<0.05; * P<0.01; *** P<0.001). n.s., not significant.

HepG2 xenotransplants [4] = assay: Doxorubicin tissue concentration after i.v. peptide in nude mice with HepG2 xenotransplants; type: in vivo; settings: nude mice with subcutaneous HepG2 xenotransplants; peptide 4 mmol/kg i.v., doxorubicin 20 mg/kg iv
Description: HepG2- and Huh7 cells (ATCC and RIKEN BioResource Center) were cultivated in DMEM with 10% FBS and penicillin/streptomycin (Life Technologies). 5 million cells in 100 μL PBS were injected into the sides of NMRI Foxn1 nude mice (Harlan Laboratories B.V.). Four weeks later the mice were assigned to the test groups. Furthermore, the effect of iRGD on the tissue concentrations of intravenously applied doxorubicin, a tumor therapeutic agent that can be detected due to the inherent fluorescence in tissue sections and tissue extracts, in the TGFα/c-myc and in the HepG2 xenotransplant HCC mouse model was analyzed. […] The control peptide had no effects on the doxorubicin level in any of the tissues. TGFα/c-myc mice with radiologically verified HCCs (A) or nude mice with subcutaneous HepG2 xenotransplants (B) were intravenously injected with 4 mmol/kg iRGD or control peptide (each in PBS), or treated with PBS alone, followed by a doxorubicin (20 mg/kg iv) injection 10 minutes later. The tissues were collected another 30 minutes later and stored, and the doxorubicin concentration was determined. The values are mean values±SD; n=5 to 6. Asterisks indicate a significant difference (**P<0.01; ***P<0.001).

4T1 tumor = assay: Gd-DTPA-enhanced MRI with and without peptide in syngeneic 4T1 breast cancer mouse model; type: in vivo; settings: BALB/c mice, 4T1 cells in mammary gland no. 4; peptide 4 mmol/kg; p<0.05
Description: 4T1 cells (ATCC) were cultivated in RPMI 1640 medium with 10% FBS and penicillin/streptomycin (Life Technologies). BALB/c mice were injected with 2.5×10^4 4T1 cells into mammary gland no. 4 of the mouse, and the tumors were allowed to grow for two weeks.
Furthermore, it was examined to what extent iRGD also influences the MRI signal of the tumor in the Gd-DTPA-enhanced MRI in the syngeneic 4T1 breast cancer mouse model.
Effect of iRGD and the RGD control peptide on the increase in the signal intensity in the Gd-DTPA-enhanced MRI in the liver and in the 4T1 tumors in BALB/c mice. BALB/c mice were injected with 2.5×10^4 4T1 cells into mammary gland no. 4 of the mouse. Two weeks later, the mice were anesthetized, followed by a basal T1-weighted MRI, and a Gd-DTPA-enhanced MRI directly thereafter. 12 to 24 hours later, either iRGD or RGD control peptide (con. peptide) was injected (100 μL each via the tail vein, 4 mmol/kg) into the same animals, followed by a basal MRI and a Gd-DTPA-enhanced MRI. The data was quantitatively analyzed. Values are mean values±SD; n=6.

HepG2 tumors = assay: Gd-DTPA-enhanced MRI with and without peptide in nude mice with HepG2 xenotransplants; type: in vivo
Description: (§3) HepG2- and Huh7 cells (ATCC and RIKEN BioResource Center) were cultivated in DMEM with 10% FBS and penicillin/streptomycin (Life Technologies). 5 million cells in 100 μL PBS were injected into the sides of NMRI Foxn1 nude mice (Harlan Laboratories B.V.). Four weeks later the mice were assigned to the test groups.
(§4) So as to determine the effect of iRGD on the Gd-DTPA-enhanced MRI in the HCC, TGFα/c mice with HCC according to a prior Gd-EOB-DTPA (Primovist)-enhanced MRI one week earlier, or nude mice with HepG2 or Huh7 tumors, were included in the experiments. The mice were anesthetized by way of intraperitoneal injection of ketamine (70 mg/kg body weight) and xylazine (10 mg/kg body weight), followed by a basal T1-weighted MRI. Directly thereafter, a Gd-DTPA-enhanced MRI was conducted (Haupenthal et al., 2012). Twelve to 24 hours later, either iRGD or the RGD control peptide was injected ([…] each via the tail vein), followed by a basal and a Gd-DTPA-enhanced MRI (Watcharin et al., 2015). For the quantitative analysis of the MRI data, the signal intensities in user defined “regions of interest” (ROI) were used (Korkusuz et al., 2013). ROIs were placed in the liver and in the tumor tissue. The changes in the signal intensities were ascertained by subtraction of the pre-contrast value from those after the administration of Gd-DTPA. […]

Huh7 xenotransplants [5] = assay: Evans blue accumulation after i.v. peptide in nude mice with Huh7 xenotransplants; type: in vivo, NMRI Foxn1 nude mice; settings: subcutaneous Huh7 xenotransplants, peptide 4 mmol/kg i.v., p<0.001
Description: as §3
(§5) So as to examine whether the tumor-permeabilizing effect of iRGD also occurs in HCC nude mice tumor models, the effect of intravenously applied iRGD on the level of co-applied Evans blue in nude mice which had HepG2 or Huh7 xenotransplants was analyzed. iRGD effectuated an increase in the concentrations of co-applied Evans blue in HepG2-xenotransplanted and Huh-7-xenotransplanted tumors by a factor of 3.4 (p≤0.002) (in HepG2 tumors) and 2.6-fold in Huh7 tumors (p<0.001) compared to the corresponding tumors of nude mice injected with PBS and the control peptide (FIGS. 1B and C).
as §2, with “Asterisks indicate a significant difference (* P<0.05; * P<0.01; *** P<0.001). n.s., not significant.” left out

Huh7 xenotransplants [6] = assay: Gd-DTPA-enhanced MRI with and without peptide in nude mice with Huh7 xenotransplants; type: in vivo; settings: p=0.0081
Description: as §3, §4

HepG2 xenotransplants [7] = assay: Evans blue accumulation after i.v. peptide in nude mice with HepG2 xenotransplants; type: in vivo, NMRI Foxn1 nude mice; settings: subcutaneous HepG2 xenotransplants, peptide 4 mmol/kg i.v., p≤0.002
Description: as §3, §5
as §2, with “Asterisks indicate a significant difference (* P<0.05; * P<0.01; *** P<0.001). n.s., not significant.” left out

| Molecule | contrast of HCC tumors in the liver in Gd-DTPA-enhanced MRI (HCCs in TGFα/c-myc mice [1]) | doxorubicin level in the HCCs (HCCs in TGFα/c-myc mice [2]) | levels of doxorubicin in the organs (HCCs in TGFα/c-myc mice [2]) | signal intensities in normal organs in Gd-DTPA-enhanced MRI (HCCs in TGFα/c-myc mice [1]) | concentration of Evans blue in normal tissue (liver, kidney, spleen and lung) (HCCs in TGFα/c-myc mice [3]) | Evans blue quantity in the tumors compared to HCCs of mice injected with PBS or control peptide (HCCs in TGFα/c-myc mice [3]) | doxorubicin level in the HCCs (HepG2 xenotransplants) (HepG2 xenotransplants [4]) | MRI signal in the Gd-DTPA-enhanced MRI in the 4T1 tumor (4T1 tumor) | signal intensity of the tumors in Gd-DTPA-enhanced MRI (HepG2) (HepG2 tumors; p=0.0311) | rise in signal intensity of the tumors in Gd-DTPA-enhanced MRI, other HCC mouse models (HepG2) (HepG2 tumors; stated for 'the other HCC mouse models') | increase of signal intensities in the tumors in Gd-DTPA-enhanced MRI vs RGD control peptide or PBS (HCCs in TGFα/c-myc mice [1]; peptide 4 mmol/kg via tail vein, quantitative densitometric analysis, n=12) | increase in concentration of co-applied Evans blue in Huh7 tumors vs PBS and control peptide (Huh7 xenotransplants [5]) | rise in signal intensity of the tumors in Gd-DTPA-enhanced MRI (Huh7) (Huh7 xenotransplants [6]) | increase in concentration of co-applied Evans blue in HepG2 tumors vs PBS and control peptide (HepG2 xenotransplants [7]) |
| --- | --- | --- | --- | --- | --- | --- | --- | --- | --- | --- | --- | --- | --- | --- |
| O=C([O-])CN(CCN(CC(=O)[O-])CC(=O)O)CCN(CC(=O)[O-])CC(=O)O.[Gd+3] [Gd-DTPA, reference compound] | highly negative contrasts |  |  |  |  |  |  |  |  |  |  |  |  |  |
| CRGDDGPKC [RGD control peptide, RGD control peptide without a CendR motif; acquired from GenScript, reference compound] | negatively contrasted | no effects | no effects | no effects | had no impact | had no effect | no effects |  |  |  |  |  |  |  |
| CRGDKGPDC [iRGD] | contrasting positively | increase in the doxorubicin level | no effects | no effects | had no impact | three-fold increase | increase in the doxorubicin level | significant increase in the MRI signal | rise in the signal intensity | ≤ 2 fold | 2 fold | 2.6 fold | 1.5 fold | 3.4 fold |

From patent publication US20180214582A1, “METHOD FOR DIAGNOSING CARCINOMAS USING IRGD AND MAGENTIC RESONANCE TOMOGRAPHY (MRT)” (Albrecht Piiper, priority 2015, published 2018)
